Common to all, as to format: cell-based, rat
For experiment [1], the system named is dopaminergic neurons in mesencephalic neuron-enriched cultures. Kind of experiment: [3H]DA uptake in Aβ- or MPP+-treated neuron-enriched cultures. The procedure:
Neuron-enriched culture were prepared from the ventral mesencephalic tissues of embryonic day 13-14 Fisher F344 rats (Charles River Laboratories, Raleigh, N.C.) as follows. Dissociated cells were seeded at 1×10^5/well in 96-well and 5×10^5/well to poly-D-lysine-coated 96-well and 24-well plates, respectively. Glial proliferation was suppressed by the inclusion of cytosine β-D-arabinocide (5-10 μM). Seven day old cultures were used for treatment, which were composed of 91% neurons, 9% astrocytes, and <0.1% microglia. The cultures were pre-treated with OM, 10^−5 M, 10^−10 M, and 10^−14M DM 30 minutes before treatment with vehicle alone, 4 μM Aβ or 0.5 μM MPP^+5 as in Example 1. DA uptake was also measured as in Example 1 and the results are expressed in both FIGS. 4A and B as a percentage of the control cultures and are the mean±S.E.M. of four individual experiments with triplicates in each experiment. […]
Neuron-enriched cultures seeded in 24-well culture plates were pretreated for 48 hours with 0.6 mM VPA followed by treatment with 0.5 μM MPP^+. [^3H]DA uptake was measured 7 days after MPP^+ treatment according to procedures described in Example 1. Results are expressed as mean±SEM of percentage of vehicle control from three independent experiments performed in duplicate. *,p<0.05 compared with vehicle-treated cultures. †, p<0.05 compared with corresponding MPP^+-treated cultures.

Experiment [2] has as its system intracellular reactive oxygen species. Kind of experiment: Intracellular ROS (DCFH oxidation) after LPS.
Description: The production of intracellular reactive oxygen species was measured by DCFH oxidation. The DCFH-DA (Molecular Probes, Eugene, Oreg.) reagent passively diffuses into cells in which it is hydrolyzed by intracellular esterase to liberate 2′-7′-dichlorofluoressein which, during reaction with oxidizing species, yields a highly fluorescent compound 2′-7′-dichlorofluorescein (DCF) that is trapped inside the cell. For each measurement, a fresh stock solution of CM-H2-DCFDA (5 mM) was prepared in dimethylsulfoxide. CM-H2-DCFDA, diluted to a final concentration of 1 μM in phenol red-free HBSS containing 2% FBS and 2% HS, was added to cultures and incubated for about 30 min at about 37° C. After washing two times with warm HBSS, vehicle or stimulators in HBSS were added to cultures. After incubation for about 30 min at about 37° C., fluorescence intensity was measured at 485 nm for excitation and 530 nm for emission using a SpectraMax Gemini XS fluorescence microplate reader (Molecular Devices).
The data are expressed as the percent of the control cultures and are the mean±SEM of three experiments performed in triplicate. *P<0.05, **P<0.01, compared to control.
Assay of intracellular ROS is performed as follows. 5-(and −6)-Chloromethyl-2′,7′-dichlorodihydrofluorescein diacetate (CM-H2-DCFDA) (Molecular Probes, Eugene, Oreg.), a chloromethyl derivative of H2-DCFDA, passively diffuses into cells in which it is hydrolyzed by intracellular esterases to liberate 2′-7′-dichlorofluorescein (DCF) which, during reaction with oxidizing species, yields a highly fluorescent compound that is trapped inside the cell. […] Cells were seeded at 1×10^5/well in 96-well plates for one day followed by treatment with 0.6 mM or 1.2 mM VPA for 24 h. The cultures were used for the assay of intracellular ROS.
After washing two times with warm Hank's balanced salt solution (HBSS), CM-H2-DCFDA, diluted to a final concentration of 1 μM in phenol red-free HBSS, was added to cultures and incubated for 30 min at 37° C. Then cultures were added with 0.6 or 1.2 mM VPA in HBSS again for 30 min and followed the treatment with 100 ng/ml LPS for 2 hours at 37° C., fluorescence intensity was measured at 485 nm for excitation and 530 nm for emission using a SpectraMax Gemini XS fluorescence microplate reader (Molecular Devices, Sunnyvale, Calif.).
Another experiment has as its system NO. The experiment is described as follows: NO production (nitrite, Griess reagent) after LPS. Particulars: for LPS-stimulated NO production (nitrite): 24 after LPS 20 ng/ml. The procedure:
(§1) Different pro-inflammatory factors that are released from microglia were also monitored. The production of NO was determined by measuring the accumulated levels of nitrite in the supernatant with the Griess reagent, and release of TNFα was measured with a rat TNFα enzyme-linked immunosorbent assay kit from R & D System (Minneapolis, Minn.).
The cultures were prepared as in Example 1 and were first treated with LPS 20 ng/ml or vehicle; 12 hours later the LPS was removed and the cultures were treated with 10^−5 M, 10^−10M, and 10^−14M DM. Twenty four hours later, nitrite oxide and PGE2 production were assessed as in Example 5. The results are expressed as a percentage of LPS treated culture and are the mean±S.E.M of four and three experiments with triplicates in each experiment. *, p<0.05 compared with the LPS-treated culture. ###, P<0.001 compared with the control culture.
Production of nitric oxide (NO) was determined in the mesencephalic neuron-glia cultures, following pretreatment and LPS stimulation as described above, by measuring the accumulated levels of nitrite in the supernatant with Griess reagent. Accumulation of nitrite, an indicator of LPS-stimulated production of NO, was determined 24 after LPS stimulation.

A further experiment deals with TNFα. The experiment is described as follows: TNFα release (ELISA) after LPS. The procedure: as §1
Mesencephalic neuron-glia cultures were pretreated with VPA or vehicle control for 48 hours prior to stimulation with 20 ng/ml LPS. The release of TNF-α was determined 3 hours after LPS treatment. The release of TNFα, was measured with a rat TNFα enzyme-linked immunosorbent assay kit from R & D System (Minneapolis, Minn.).

In experiment [3] the test system is microglia in neuron-glia cultures. The experiment is described as follows: OX-42 immunostaining of LPS-induced microglial activation. To be noted: for LPS-induced activation of microglia (OX-42): LPS 5 ng/ml, 12 h. The protocol: Dopaminergic neurons were recognized with the anti-TH antibody and microglia were detected with the OX-42 antibody, which recognizes the CR3 receptor. This was accomplished as follows: 3.7% formaldehyde-fixed cultures were treated with 1% hydrogen peroxide for about 10 minutes followed by sequential incubation with a blocking solution (30 min), primary antibody (overnight, 4° C.), biotinylated secondary antibody (2 hours), and ABC reagents (40 min). The color was developed with 3,3′-diaminobenzidine.
Neuron-glia cultures were prepared and treated with vehicle, LPS (5 ng/ml), or LPS plus DM respectively as in Example 1. Twelve hours later, cultures were immunostained with anti-OX-42 antibody. Images shown are representative of three separate experiments. The immunostaining and morphological analysis was accomplished as in Example 2.
Mesencephalic neuron-glia cultures were pretreated with VPA for 48 h and then treated with 20 ng/ml LPS for 72 h, as described in Example 19. Immunostaining with an antibody against OX-42 was then performed, as described in Example 19.

The mark [4] stands for this setting: DM 10^−5 M and 10^−14 M pretreatment.

Consider `COc1ccc2c(c1)[C@@]13CCCC[C@H]1[C@@H](C2)N(C)CC3` [DM, d-3-methoxy-N-methylmorphinan], for which the “Aβ (1-42)-induced reduction of DA uptake” value in experiment [1] (DM 10^−5, 10^−10, 10^−14 M, Aβ (1-42) 4 μM, 9 days, neuron-enriched) is “did not significantly alter”. Further, the “LPS-induced increase in intracellular reactive oxygen species” value in experiment [2] (setting [4]) is given as “significantly decreased”; in experiment [2] (DM 10^−10 M pretreatment) it was “no significant reduction”. Further, the “LPS-induced increase in the release of NO” value was “significantly decreased” in the experiment with NO (setting [4]) and “no significant reduction” in the experiment with NO (DM 10^−10 M pretreatment). The “NO production, post treatment” value in the experiment with NO (femtomolar DM after removal of LPS (20 ng/ml, 12 h), 24 h) is “reduction of NO and PGE2 production”. Further, the “LPS-induced increase in the release of TNFα” value with TNFα (setting [4]) was “significantly decreased”; with TNFα (DM 10^−10 M pretreatment) it was “no significant reduction”. The “LPS-induced activation of microglia (OX-42)” value was “prevented the LPS-induced activation of microglia” in experiment [3] (DM 10^−5 M and 10^−14 M); “didn't significantly inhibit microglia activation” in experiment [3] (DM 10^−10 M).

For `CCCC(CCC)C(=O)O` [VPA, Valproic acid], the “MPP+-induced degeneration of DA neurons (DA uptake)” value in experiment [1] (VPA 0.6 mM, 48 hours pretreatment, MPP+ 0.5 μM, 7 days) is listed as “blocked”. The “LPS-induced increase of iROS level” value in experiment [2] (VPA 0.6 or 1.2 mM pretreatment, enriched microglia, LPS 100 ng/ml 2 h) is “completely blocked”. In addition, the “basal iROS levels” value in experiment [2] (VPA alone 0.6 mM, enriched microglia) is recorded as “reduced basal iROS levels”. The “LPS-stimulated NO production (nitrite)” value is 54 % of the control in the experiment on NO (VPA 0.4 mM pretreatment) and 78 % of the control in the experiment on NO (VPA 0.6 mM pretreatment). Also, the “LPS-induced TNFα production” value in the experiment with TNFα (VPA 0.2 mM, 48 h pretreatment, 3 h after LPS 20 ng/ml) is recorded as “significant inhibited”. Besides, in the experiment on TNFα (VPA 0.4 or 0.6 mM, 48 h pretreatment, 3 h after LPS 20 ng/ml), the “LPS-induced production of TNFα” value was “completely blocked”. Moreover, the “LPS-stimulated activation of microglia (OX-42)” value in experiment [3] (VPA 0.4 or 0.6 mM, 48 h pretreatment, LPS 20 ng/ml 72 h) was “suppressed”. In addition, in experiment [3] (VPA alone), the “microglia activation (OX-42), VPA alone” value is given as “did not show significant effects on microglia activation”.

The values above are taken from US8796302B2 (priority 2004, dated 2014).
